Laboratory results published in patent US9303076B2, “Cell-penetrating peptides and uses thereof” (Hoffmann-La Roche Inc., priority 2010, dated 2016).
“Also recorded” adds a separate entry of the source.

Key:
MCF7 cells = assay: FACS analysis of internalization of FITC-labeled peptides; assay type: cell-based, human
Protocol: For FACS analysis, MCF7 cells (ATCC number HTB-22) were detached by 15 min incubation in accutase (an enzyme solution having proteolytic and collagenolytic activities; commercially available from various suppliers). After washing in FACS buffer (PBS containing 5% FCS), the cells were seeded in a 96 well, rounded bottom multi-well plate (Cat. No. 3799, Corning Inc., Corning, N.Y. USA) in a final density of 3×10^5 cells/ml and used immediately. The cells were incubated in the respective presence of 1 μM, 5 μM and 10 μM FITC-labeled peptides in OptiMEM medium for 3 hours at 37° C. Afterwards, the cells were washed in FACS buffer and incubated in proteinase K (0.02 mg/ml) containing buffer for 30 minutes at 37° C. The cells were washed twice and analyzed with the FACSCanto II (BD Biosciences; San Jose, Calif., USA) using the FITC channel.
For determining the internalization behavior of the CPPs identified in the screening procedures FITC-labeled derivates of said peptides (at 1 μM, 5 μM, and 10 μM, respectively) were analyzed by means of FACS. The following peptides were used: NRTN as a transfecting peptide, WNT16 as a non-transfecting peptide, FALL as a toxic peptide and TAT as a reference (positive control) (cf. FIG. 12). MCF7 cells were incubated in the presence of the fluorescent peptide derivatives for 3 hours at 37° C. in OptiMEM. Subsequently, the cells were treated with proteinase K for 30 minutes at 37° C. to remove surface bound peptides, and thus to ensure the monitoring only of internalized peptides. The cells were then washed in PBS and analyzed by FACS.

siRNA duplex = assay: gel-shift assay of peptide/siRNA complex formation; assay type: binding; settings: ethidium bromide staining
Protocol: Gel-shift assays were performed by mixing […] siRNA duplex with the respective peptides in a given molar ratio in water. The complexes were formed for 1 hour at 37° C. and analyzed on a 2.5% agarose gel with ethidium bromide (run: 40 minutes at 125 V). For proteinase K treatment, 1 μl proteinase K was added to a standard reaction as indicated above.
Mechanisms that may explain transfection functionalities of charged peptides such as TAT or protamine include the formation of complexes between positively charged peptides and negatively charged nucleic acids. Such complexes enable peptide-mediated membrane-interacting and/or endosome escape functionalities to transfer the complexed nucleic acids into the cytosol of cells (Law, M. et al. (2008) Biotechnol. Prog. 24, 957-963) In order to address whether the above mechanism may apply to the NTRN-derived peptide as well gel-shift assays were performed (cf. FIG. 8). To this end, siRNA was co-incubated with increasing concentrations of peptide, followed by analyses of their migration pattern via gel electrophoresis.

[1] = system: hCMEC/D3 brain endothelial cells; assay: uptake into brain endothelial cells (blood-brain-barrier cell culture model); assay type: cell-based; settings: FITC-conjugated peptide (N- and C-terminal), 5 μM, 1 h, 37° C.; hCMEC/D3 or primary human brain endothelial cells
Protocol: Fluorescein isothiocyanate (FITC)-conjugated NRTN peptides (N-terminal and C-terminal conjugation, respectively) were incubated with hCMEC/D3 brain endothelial cells at 5 μM for 1 h at 37° C. Subsequently, the cells were washed and fixed. Images were taken using a fluorescence microscope.
In order to evaluate potential interactions of the NRTN-derived peptide with endothelial cells forming the blood-brain-barrier, hCMEC/D3 cells or primary human brain endothelial cells were exposed to the NRTN-derived peptide in a blood-brain-barrier (BBB) model (Weksler, B. B. et al. (2005) FASEB J. 19, 1872-1874; Poller, B. et al. (2008) J. Neurochem. 107, 1358-1363). […] Thus, the NRTN-derived peptide localizes to a compartment that is important for BBB functionality (that is, for mediating and controlling transport across the BBB).

GAAEAAARVYDLGLRRLRQRRRLRRERVRA (NRTN peptide sequence; listed as Homo sapiens) [peptide derived from human neurturin]
internalization into cells (FACS, FITC channel) (MCF7 cells; FITC-labeled peptide 1, 5, 10 μM, 3 hours at 37° C., proteinase K treated): internalized into MCF7 cells | change of internalization with concentration (MCF7 cells; increasing the concentration from 5 μM to 10 μM): strong increase in internalization | complex formation with siRNA (siRNA duplex): able to form stable complexes with siRNA | uptake / localization in brain endothelial cells [1]: accumulates (i.e. internalizes) under these assay conditions in endosomal structures; also recorded: localizes to intracellular endosomal structures
